Measurements reported in ChEMBL document CHEMBL1127777, “Indolocarbazole nitrogens linked by three-atom bridges: a potent new class of PKC inhibitors” (Bioorg Med Chem Lett, 1994).

Biological target: Protein kinase C (PKC)
Experiment: In vitro inhibition of protein kinase C from rat brain.

| SMILES | IC50 [nM] |
| --- | --- |
| CCOC(=O)C1n2c3ccccc3c3c4c(c5c6ccccc6n(c5c32)CS1(=O)=O)C(=O)NC4=O (stereo not drawn) | 20 |
| CC1n2c3ccccc3c3c4c(c5c6ccccc6n(c5c32)C(C)S1(=O)=O)C(=O)NC4=O (stereo in doubt; 16 (dl)) | 120 |
| O=C1NC(=O)c2c1c1c3ccccc3n3c1c1c2c2ccccc2n1C1COCC3S1(=O)=O | 20 |
| O=C1NC(=O)c2c1c1c3ccccc3n3c1c1c2c2ccccc2n1C[S+]([O-])C3 | 19 |
| O=C1NC(=O)c2c1c1c3ccccc3n3c1c1c2c2ccccc2n1CS(=O)(=O)C3 | 2 |
| O=C1NC(=O)c2c1c1c3ccccc3n3c1c1c2c2ccccc2n1CN(C(CO)CO)C3 | 10 |
| O=C1NCc2c1c1c3ccccc3n3c1c1c2c2ccccc2n1CN(CCO)C3 | 15 |
| CN1Cn2c3ccccc3c3c4c(c5c6ccccc6n(c5c32)C1)C(=O)NC4=O | 86 |
| CC1n2c3ccccc3c3c4c(c5c6ccccc6n(c5c32)C(C)S1(=O)=O)C(=O)NC4=O (stereo in doubt) | 2.4 |
| O=C1NC(=O)c2c1c1c3ccccc3n3c1c1c2c2ccccc2n1CN(CCO)C3 | 17 |
| O=C1NC(=O)c2c1c1c3ccccc3n3c1c1c2c2ccccc2n1CN(O)C3 | 90 |
| O=C1NCc2c1c1c3ccccc3n3c1c1c2c2ccccc2n1CS(=O)(=O)C3 | 5 |

Other lines, results leading:

| IC50 [nM] | SMILES |
| --- | --- |
| 11 | O=C1NC(=O)c2c1c1c3ccccc3n3c1c1c2c2ccccc2n1COC3 |
| 24 | NC1=NC(=O)c2c1c1c3ccccc3n3c1c1c2c2ccccc2n1CSC3 |
| 14 | O=C1NC(=O)c2c1c1c3ccccc3n3c1c1c2c2ccccc2n1CSC3 |
| 145 | O=C1NC(=O)c2c1c1c3ccccc3n3c1c1c2c2ccccc2n1CNC3 |
| 24 | NC1=NC(=O)c2c1c1c3ccccc3n3c1c1c2c2ccccc2n1COC3 |
| 7 | O=C1NCc2c1c1c3ccccc3n3c1c1c2c2ccccc2n1CSC3 |
